Results taken from patent publication US20170022201A1, “MACROCYLIC PYRIDINE DERIVATIVES” (Janssen Pharmaceutica NV, priority 2014, published 2017).

Assays:
[1] = biological target: T1, EF2K (Homo sapiens, UniProt O00418); test: Biochemical EF2K lysate-based kinase assay (AlphaLISA p-eEF2 Thr56); settings: LN-229 cell lysates, 10 mM ATP, pH 6.6; pIC50 = -log IC50 (M); read-out: eEF2K_C_alphalisa pIC50 (converted)
T1 construct: host or cells: LN-229 glioblastoma cell lysate
T1 sequence (O00418 1-725): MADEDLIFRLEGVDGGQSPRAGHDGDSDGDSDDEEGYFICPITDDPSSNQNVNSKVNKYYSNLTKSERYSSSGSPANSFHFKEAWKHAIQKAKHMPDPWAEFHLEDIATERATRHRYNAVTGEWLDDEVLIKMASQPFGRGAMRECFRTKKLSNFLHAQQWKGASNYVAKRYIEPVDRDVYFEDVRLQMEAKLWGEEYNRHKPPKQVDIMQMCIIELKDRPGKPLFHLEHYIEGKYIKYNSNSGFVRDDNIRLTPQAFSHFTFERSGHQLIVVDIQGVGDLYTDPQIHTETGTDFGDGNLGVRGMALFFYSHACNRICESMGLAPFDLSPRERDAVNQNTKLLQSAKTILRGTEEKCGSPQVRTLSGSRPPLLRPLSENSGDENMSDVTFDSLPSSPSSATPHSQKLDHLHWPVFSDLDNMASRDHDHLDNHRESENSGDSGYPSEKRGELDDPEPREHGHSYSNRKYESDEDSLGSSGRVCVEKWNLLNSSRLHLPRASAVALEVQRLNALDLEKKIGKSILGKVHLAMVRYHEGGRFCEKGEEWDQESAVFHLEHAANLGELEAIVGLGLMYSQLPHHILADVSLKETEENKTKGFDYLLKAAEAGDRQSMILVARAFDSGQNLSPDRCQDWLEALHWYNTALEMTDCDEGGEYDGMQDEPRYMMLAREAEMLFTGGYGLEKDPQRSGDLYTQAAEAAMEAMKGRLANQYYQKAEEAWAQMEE
From the text: LN-229 cells were purchased from ATCC (CRL-2611); these are glioblastoma cells. Cell lysates from LN229 were used in this kinase assay to provide both the kinase and the substrate (EF2). The AlphaLISA p-eEF2 (Thr56) detection assay was developed using a sandwich assay format with two specific antibodies recognizing different epitopes of the target, including one antibody against the phosphorylation site of interest. One anti-eEF2 antibody was conjugated onto AlphaLISA Acceptor beads, while the second antibody was biotinylated and captured by streptavidin coated Donor beads.
Compound was mixed with LN-229 cell lysates in the presence of a kinase buffer (e.g. HEPES) at a pH of 6.6, containing 10 mM Mg^2+ (e.g. magnesium acetate) and 10 mM adenosine-tri-phosphate (ATP) and incubated at room temperature for 15 minutes. The kinase reaction was stopped with excess ethylenediaminetetraacetic acid disodium salt and the biotinylated-anti phospho eEF2 antibody (3 nM) was added for 1 hour. Then the anti-EF2 acceptor beads (10 μg/ml) as well as the streptavidin coated donor beads (20 μg/ml) were added for 1 hour, and the AlphaLISA signal was measured in an Envision instrument once, left overnight, and measured again for the final read.

[2] = biological target: T2, eEF2K (Homo sapiens, UniProt O00418); test: EF2K cell-based assay (P-EF2 AlphaLISA, 2-deoxyglucose stimulated MCF10A cells); settings: 2.5 mM 2-deoxyglucose 4 h, phosphorylation of EF2 at Thr 56, pIC50 = -log IC50 (M), read-out: eEF2K_C_PThr56 pIC50 (converted)
T2 construct: in the immortalized epithelial breast cell lines, MCF10A; host or cells: MCF10A immortalized breast epithelial cells
T2 sequence (O00418 1-725): T1 sequence (O00418 1-725)
Description: In this assay, 2.5 mM 2-deoxyglucose was used to deplete intracellular ATP and activate 5′ adenosine monophosphate-activated protein kinase (AMPK) in the immortalized epithelial breast cell lines, MCF10A. MCF 10A cells were purchased from ATCC (CRL-10317).
MCF10A cells are seeded at a density of 1.25×10^5 Cells/ml at 100 μl/well in a 96-well plate and incubated for 24 hours (37° C., 5% CO2). Compound is added for 1 hour, and cell are stimulated with 2.5 mM of 2-deoxy-glucose for 4 hours. Medium is then removed, and cells are lysed in an ice-cold buffer M-PER (Thermo Scientific, 78501), containing protease and phosphatase inhibitors. P-EF2 levels are determined in these lysates using the P-EF2 AlphaLISA described above.

[3] = biological target: PIK3C3 lipid kinase (Homo sapiens, UniProt Q8NEB9); test: Biochemical Vps34 lipid kinase assay (ADP-Glo); settings: 20 μM ATP; for IC50: serial dilution 10 μM to 0.3 nM, pIC50 = -log IC50 (M); for remaining activity at 1 µM: 1 h, read-out: VPS34_1microM_%ofcntrl; for remaining activity at 1 µM / VPS34_1microM_%ofcntrl: single dose 1 μM, residual activity compared to control (DMSO)
Description: A non-radiometric kinase assay (ADP-Glo™ Assay, Promega, Madison, Wi, USA) was used for measuring the kinase activity of the PIK3C3 lipid kinase. All kinase assays were performed in 96-well half-area microtiter plates in a 25 μl reaction volume. The reaction cocktail was pipetted in 3 steps in the following order: • 10 μl of ATP solution (in assay buffer, see below) • 5 μl of test sample in 5% DMSO 10 μl of enzyme/substrate mixture
All lipid kinase assays contained 50 mM HEPES (4-(2-hydroxyethyl)-1-piperazineethanesulfonic acid)—NaOH, pH 7.5, 1 mM EGTA ((ethylene glycol tetraacetic acid), 100 mM NaCl, 0.03% CHAPS (3-[(3-Cholamidopropyl) dimethylammonio]-1-propanesulfonate), 2 mM DTT (Dithiothreitol), 20 μM ATP (corresponding to the apparent ATP-Km), kinase (7.6 nM) and substrate (50 μM). The assay for PIK3C3 additionally contained 3 mM MnCl2.
The reaction cocktails were incubated at 30° C. for 60 minutes. The reaction was stopped with 25 μl ADP-Glo™ reagent per well. Plates were incubated for 40 minutes at room temperature, followed by addition of 50 μl kinase detection reagent per well and incubation for 60 minutes at room temperature. Signal was determined with a microplate luminescence reader (Victor, Perkin Elmer). The assay was either performed using a single dose of compound (1 μM final concentration in the assay reaction) with resulting data expressed as residual activity compared to control (DMSO), or using a serial (half-log) dilution of compounds starting at 10 μM and down to 0.3 nM (final concentrations in the assay) with data expressed as the pIC50.

Chain of PIK3C3 lipid kinase (Q8NEB9 whole entry): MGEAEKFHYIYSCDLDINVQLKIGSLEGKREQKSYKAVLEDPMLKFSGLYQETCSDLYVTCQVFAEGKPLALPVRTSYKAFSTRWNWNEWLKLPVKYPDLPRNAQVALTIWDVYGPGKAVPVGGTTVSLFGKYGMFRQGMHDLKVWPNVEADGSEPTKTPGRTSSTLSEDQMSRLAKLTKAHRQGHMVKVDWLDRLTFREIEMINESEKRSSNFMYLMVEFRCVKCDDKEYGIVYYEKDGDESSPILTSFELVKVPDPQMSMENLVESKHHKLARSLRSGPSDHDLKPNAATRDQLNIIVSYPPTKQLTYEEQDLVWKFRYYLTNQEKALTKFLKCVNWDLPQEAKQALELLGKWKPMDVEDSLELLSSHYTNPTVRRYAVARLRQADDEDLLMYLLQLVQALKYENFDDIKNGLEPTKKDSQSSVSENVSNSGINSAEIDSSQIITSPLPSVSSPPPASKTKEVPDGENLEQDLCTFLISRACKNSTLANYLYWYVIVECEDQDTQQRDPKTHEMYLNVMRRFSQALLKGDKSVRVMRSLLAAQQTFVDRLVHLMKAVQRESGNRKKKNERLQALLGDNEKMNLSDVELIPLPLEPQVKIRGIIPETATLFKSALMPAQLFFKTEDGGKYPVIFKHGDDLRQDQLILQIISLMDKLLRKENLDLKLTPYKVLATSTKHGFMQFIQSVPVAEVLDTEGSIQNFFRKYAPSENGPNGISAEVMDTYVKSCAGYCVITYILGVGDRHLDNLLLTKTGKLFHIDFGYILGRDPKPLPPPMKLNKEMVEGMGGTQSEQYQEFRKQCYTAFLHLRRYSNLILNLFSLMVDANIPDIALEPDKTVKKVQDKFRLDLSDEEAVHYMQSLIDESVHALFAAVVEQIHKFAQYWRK

| SMILES | IC50 [1] [M] | IC50 [2] [M] | IC50 [3] [M] | remaining activity at 1 µM [3] [%] | VPS34_1microM_%ofcntrl [3] [%] |
| --- | --- | --- | --- | --- | --- |
| O=C1CN2CCN(CC2)Cc2cccc(c2)Nc2cc(ccn2)-c2ccc(nc2)N2CCCC2CCN1 (single isomer, unassigned) [Compound 143] | 1.38e-05 | > 3.02e-05 | 2.14e-06 | – | – |
| O=C1NCCC2CC(O)CN2c2ncc(cn2)-c2ccnc(c2)Nc2cccc(c2)CN2CCN(CC2)C12CC2 (centres unmarked) [Compound 56] | 3.39e-09 | 3.02e-07 | 2.63e-07 | – | – |
| CN1CCN(CCCO)c2ncc(cn2)-c2ccnc(c2)Nc2cccc(c2)CN2CCN(CC2)CC1=O [Compound 17] | > 3.02e-05 | > 3.02e-05 | – | 62.4 | – |
| O=C1CN2CCN(CC2)Cc2cccc(c2)Nc2cc(ccn2)-c2ccc(nc2)N2CCCC2CCN1 (single isomer, unassigned) [Compound 142] | 3.55e-08 | 1.58e-06 | – | 40 | – |
| CN1CCCN(CCCO)c2ncc(cn2)-c2ccnc(c2)Nc2cccc(c2)CN2CCN(CC2)CC1=O [Compound 16] | > 3.02e-05 | > 3.02e-05 | – | 46.1 | – |
| NS(=O)(=O)NC1CC2CCNC(=O)C3(CC3)N3CCN(CC3)Cc3cccc(c3)Nc3cc(ccn3)-c3cnc(nc3)N2C1 (centres unmarked) [Compound 87] | 1.95e-08 | ~2.29e-06 | – | 33.8 | – |
| NC(=O)C1CCNC(=O)CN2CCN(CC2)Cc2cccc(c2)Nc2cc(ccn2)-c2cnc(nc2)N1 (centres unmarked) [Compound 123] | 4.47e-07 | 5.37e-06 | – | 73.4 | – |
| O=C1CN2CC3CCC2CN3Cc2cccc(c2)Nc2cc(ccn2)-c2cnc(nc2)NCCCN1 (single isomer, unassigned) [Compound 25] | 2.34e-06 | > 1e-05 | 6.03e-07 | – | – |
| O=C1CN2CCN(Cc3cccc(c3)Nc3cc(ccn3)-c3cnc(nc3)N3CCCC3CCN1)C(CO)C2 (centres unmarked) [Compound 44] | 2.45e-08 | 8.71e-06 | 1.55e-06 | – | – |
| O=C1NCCCNc2ncc(cn2)-c2ccnc(c2)Nc2cccc(c2)CN2CCN(CC2)C1CO (single isomer, unassigned) [Compound 3] | 1.55e-07 | 5.75e-06 | 2.29e-07 | 15.3 | – |
| CN1CCCN(C)c2ccc(cn2)-c2ccnc(c2)Nc2cccc(c2)CN2CCN(CC2)CC1=O [Compound 68] | 5.13e-07 | > 3.02e-05 | 4.68e-06 | – | – |
| O=C1CN2CCN(CC2)Cc2cccc(c2)Nc2cc(ccn2)-c2cnc(nc2)NC(C(=O)O)CCN1 (centres unmarked) [Compound 120] | 6.31e-07 | > 3.02e-05 | 2.95e-07 | – | 23.74 |
| CC1CN2CCN1Cc1cccc(c1)Nc1cc(ccn1)-c1cnc(nc1)N1CC(O)CC1CCNC(=O)C2 (centres unmarked) [Compound 61] | 1.26e-08 | 4.27e-07 | – | – | 80.70 |
| COCC1C(=O)NCCCNc2ncc(cn2)-c2ccnc(c2)Nc2cccc(c2)CN2CCN1CC2 (single isomer, unassigned) [Compound 5] | 1.12e-07 | 2.51e-06 | 4.47e-07 | 22.4 | – |
| N#CC1CC2CCNC(=O)CN3CCN(CC3)Cc3cccc(c3)Nc3cc(ccn3)-c3cnc(nc3)N2C1 (centres unmarked) [Compound 77] | 4.27e-08 | 3.8e-06 | – | – | 86.17 |
| O=C1NCCCNc2ncc(cn2)-c2ccnc(c2)Nc2cccc(c2)NC2CCN(CC2)C12CC2 [Compound 100] | 6.17e-08 | 2.75e-06 | 3.55e-07 | 14.9 | – |
| O=C1CN2CCN(Cc3cccc(c3)Nc3cc(ccn3)-c3cnc(nc3)NCCCN1)CC21CC1 [Compound 28] | 2.24e-05 | > 1e-05 | > 1e-05 | – | – |
| O=C1CN2CCN(CC2)Cc2cccc(c2)Nc2cc(ccn2)-c2cnc(nc2)N2CC(O)CC2CCN1 (centres unmarked) [Compound 55] | 8.51e-09 | 7.76e-07 | 5.5e-07 | 29.6 | – |
